According to patent US12521388B2, “Substituted dipyrido[1,2-a:1′,2′-d]pyrazines for treating viral infections” (Gilead Sciences, Inc., priority 2013, dated 2026):
Like-named read-outs stand apart in the source and are kept apart here.

What was measured:
[1] = test system: HIV-IIIb; assay: Antiviral assay in MT4 cells; type: cell-based; conditions: Human immunodeficiency virus 1, 120 h; MT4 cells infected with HIV-IIIb (0.004 m.o.i.), 5 days incubation, CellTiter-Glo; average over time; read-out: EC50 nM in MT-4
Protocol: (§1) For the antiviral assay utilizing MT4 cells, 0.4 μL of […] test concentration of 3-fold serially diluted compound in DMSO was added to 40 μL of cell growth medium (RPMI 1640, 10% FBS, 1% penicilline/Streptomycine, 1% L-Glutamine, 1% HEPES) in each well of 384-well assay plates (10 concentrations) in quidruplicate. 1 mL aliquots of 2×10^6 MT4 cells are pre-infected for 1 and 3 hours respectively at 37° C. with 25 μL (MT4) or of either cell growth medium (mock-infected) or a fresh 1:250 dilution of an HIV-IIIb concentrated ABI stock (0.004 m.o.i. for MT4 cells). Infected and uninfected cells are diluted in cell growth medium and 35 μL of 2000 (for MT4) cells is added to each well of the assay plates. Assay plates were then incubated in a 37° C. incubator. After 5 days of incubation, 25 μL of 2× concentrated CellTiter-Glo™ Reagent (catalog #G7573, Promega Biosciences, Inc., Madison, WI) was added to each well of the assay plate. Cell lysis was carried out by incubating at room temperature for 2-3 minutes, and then chemiluminescence was read using the Envision reader (PerkinElmer).

[2] = Cytotoxicity in MT4 cells (mock-infected) in the antiviral assay; type: cell-based; conditions: human
Protocol: as §1

[3] = MT4 cells (mock-infected), MT4 cells, 5 days incubation, CellTiter-Glo, average over time, read-out: CC50 nM in MT-4

Row | Compound | EC50 [1] | CC50 at 5 days [2, 3] | CC50 at 5 days [2]
1 | O=C(NCc1ccc(F)cc1F)c1cn2c(c(O)c1=O)C(=O)N1C[C@H]3C[C@]1(C2)C3 [Compound 1] | 3.5 nM | 49900 nM | 
2 | O=C(NCc1ccc(F)cc1F)c1cn2c(c(O)c1=O)C(=O)N1C[C@H]3CC[C@@]1(CC3)C2 [Compound 2] | 4.4 nM | 53200 nM | 
3 | O=C(NCc1ccc(F)cc1F)c1cn2c(c(O)c1=O)C(=O)N1C3CCC1(CC3)C2 [Compound 3] | 1.9 nM |  | 26200 nM
4 | O=C(NCc1ccc(F)cc1F)c1cn2c(c(O)c1=O)C(=O)N1C[C@@H]3CCC[C@]1(C3)C2 [Compound 4] | 1.6 nM | 11000 nM | 
5 | O=C(NCc1c(F)cc(F)cc1F)c1cn2c(c(O)c1=O)C(=O)N1C[C@@H]3CCC[C@]1(C3)C2 [Compound 5] | 1.3 nM | 10600 nM | 
6 | O=C(NCc1ccc(F)cc1F)c1cn2c(c(O)c1=O)C(=O)N1C[C@H]3CCC[C@@]1(C3)C2 [Compound 6] | 2.6 nM | 9660 nM | 
7 | O=C(NCc1c(F)cc(F)cc1F)c1cn2c(c(O)c1=O)C(=O)N1C[C@H]3CCC[C@@]1(C3)C2 [Compound 7] | 2.8 nM | 13000 nM | 
8 | O=C(NCc1cccc(Cl)c1F)c1cn2c(c(O)c1=O)C(=O)N1C[C@H]3CCC[C@@]1(C3)C2 [Compound 8] | 2.3 nM | 5300 nM | 
9 | C[C@@]12CCC[C@]3(Cn4cc(C(=O)NCc5c(F)cc(F)cc5F)c(=O)c(O)c4C(=O)N3C1)C2 [Compound 9] | 1.4 nM | 8660 nM | 
10 | O=C(NCc1ccc(F)cc1F)c1cn2c(c(O)c1=O)C(=O)N1C[C@@H]3CC[C@]1(C3)C2 [Compound 10, (3R,12aS)—N-(2,4-difluorobenzyl)-7-hydroxy-6,8-dioxo-2,3,4,6,8,12-hexahydro-1H-3,12a-methanodipyrido[1,2-a:1′,2′-d]pyrazine-9-carboxamide] | 2.3 nM | 24000 nM | 
11 | O=C(NCc1ccc(F)cc1F)c1cn2c(c(O)c1=O)C(=O)N1C[C@H]3CC[C@@]1(C3)C2 [Compound 11] | 3.2 nM | 27900 nM | 
12 | O=C(NCc1c(F)cc(F)cc1F)c1cn2c(c(O)c1=O)C(=O)N1C[C@H]3CC[C@@]1(C3)C2 [Compound 12] | 3.2 nM | 53200 nM | 
13 | O=C(NCc1c(F)cc(F)cc1F)c1cn2c(c(O)c1=O)C(=O)N1C[C@@H]3CC[C@]1(C3)C2 [Compound 13] | 1.7 nM | 24300 nM | 
14 | C[C@@H](NC(=O)c1cn2c(c(O)c1=O)C(=O)N1C3CCC1(CC3)C2)c1c(F)cc(F)cc1F [Compound 14] | 6.2 nM | 13200 nM | 
15 | O=C(NCc1c(F)cc(F)cc1F)c1cn2c(c(O)c1=O)C(=O)N1C3CCC1(CC3)C2 [Compound 15] | 2.3 nM | 24000 nM | 
